US20250275959A1, “COMPOUNDS AND METHODS OF THEIR USE” (LEXICON PHARMACEUTICALS, INC., priority 2024, published 2025)

Molecular target: hACSL5 (Homo sapiens (Human), UniProt Q9ULC5)
Assay: Human ACSL5 coupled enzyme Amplex Red assay
Format: biochemical
Conditions: read-out: hACSL5 IC50
Procedure: Human ACSL5 (33-683) was cloned with a C-terminal 6 His tag and expressed in insect cells (sf9) as per standard insect cell expression protocols. Human ACSL5 was enriched by affinity nickel affinity chromatography followed by Superdex S200 gel filtration column equilibrated in 20 mM HEPES pH 7.8, 500 mM NaCl, 1 mM TCEP, 5% glycerol, 0.1% Triton X^100.
Inhibition of ACSL5 enzyme activity was monitored with a coupled enzyme Amplex Red assay.
The assay is carried out in 384-well microtiterplates. In a total volume of […], compounds are preincubated with 20 nM ACSL5, in a buffer containing 150 mM MOPS-NaOH, 12 mM MgCl2, 0.03% (v/v) Triton X-100, 2.79 U mL-1 Peroxidase and 24 U mL-1 Acyl-CoA Oxidase (pH 7.6). The reaction is started by the addition of substrate and co factors (25 μM oleate, 30 μM CoA, 1 mM ATP and 50 μM Amplex Red) and the fluorescence detected after 10 minutes at 25° C. with a fluorescence reader (BMG-Fluostar; BMG-Technologies) using an excitation wavelength of 535 nm and an emission wavelength of 590 nm.
Concentration-response titration points for each compound tested were filled to the Hill equation yielding concentrations of half maximal inhibition […] and maximal inhibition values.

Sequence of hACSL5 (Q9ULC5 33-683): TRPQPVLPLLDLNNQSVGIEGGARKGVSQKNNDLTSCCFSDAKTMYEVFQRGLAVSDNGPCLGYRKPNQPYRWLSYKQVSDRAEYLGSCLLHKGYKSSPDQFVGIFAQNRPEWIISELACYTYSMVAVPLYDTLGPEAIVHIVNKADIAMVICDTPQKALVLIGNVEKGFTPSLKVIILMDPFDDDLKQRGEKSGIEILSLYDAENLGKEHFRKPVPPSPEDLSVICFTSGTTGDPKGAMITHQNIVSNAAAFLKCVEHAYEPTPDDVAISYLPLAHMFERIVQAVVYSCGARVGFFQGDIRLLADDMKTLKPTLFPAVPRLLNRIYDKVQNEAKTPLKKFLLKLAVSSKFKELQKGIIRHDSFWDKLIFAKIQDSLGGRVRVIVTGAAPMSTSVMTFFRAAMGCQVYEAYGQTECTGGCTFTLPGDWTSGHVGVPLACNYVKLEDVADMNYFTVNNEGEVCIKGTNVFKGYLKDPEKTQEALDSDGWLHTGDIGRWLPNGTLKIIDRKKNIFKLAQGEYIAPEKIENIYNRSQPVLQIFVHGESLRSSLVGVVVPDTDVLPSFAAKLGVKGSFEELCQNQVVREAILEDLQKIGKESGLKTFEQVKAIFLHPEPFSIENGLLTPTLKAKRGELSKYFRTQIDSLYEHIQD

Row | Structure (SMILES) | IC50 [nM]
1 | NCc1ccc(S(=O)(=O)NC(=O)c2ccc(OCc3ccc(Oc4ccccc4)cc3)c(F)c2F)cc1 [N-((4-(aminomethyl)phenyl)sulfonyl)-2,3-difluoro-4-((4-phenoxybenzyl)oxy)benzamide] | > 500
2 | CC(Oc1ccc(C(=O)NS(=O)(=O)c2ccc(CN)cc2)cc1C(F)(F)F)c1cccc(OC2CCCC2)c1 (stereo not drawn) [N-((4-(aminomethyl)phenyl)sulfonyl)-4-(1-(3-(cyclopentyloxy)phenyl)ethoxy)-3-(trifluoromethyl)benzamide] | > 500
3 | CC(COc1ccc(C(=O)NS(=O)(=O)c2ccc(CN)cc2)c(Cl)c1Cl)c1cccc(Oc2ccccc2)c1 (stereo not drawn) [N-((4-(aminomethyl)phenyl)sulfonyl)-2,3-dichloro-4-(2-(3-phenoxyphenyl)propoxy)benzamide] | 100 to 500
4 | CC[C@@H](Oc1ccc(C(=O)NS(=O)(=O)c2ccc(OC3CCN(C)CC3)cc2)c(F)c1F)c1ccc(OCCOC)cn1 [(R)-2,3-difluoro-4-(1-(5-(2-methoxyethoxy)pyridin-2-yl)propoxy)-N-((4-((1-methylpiperidin-4-yl)oxy)phenyl)sulfonyl)benzamide] | > 500
5 | CC(Oc1ccc(C(=O)NS(=O)(=O)c2ccc(CN)cc2)cc1C(F)(F)F)c1cccc(OCC2CCCC2)c1 (stereo not drawn) [N-((4-(aminomethyl)phenyl)sulfonyl)-4-(1-(3-(cyclopentylmethoxy)phenyl)ethoxy)-3-(trifluoromethyl)benzamide] | > 500
6 | CC[C@@H](Oc1ccc(C(=O)NS(=O)(=O)N2CC3(CN(C)C3)C2)c(F)c1F)c1ccc(Oc2ccccn2)cn1 [(R)-2,3-difluoro-N-((6-methyl-2,6-diazaspiro[3.3]heptan-2-yl)sulfonyl)-4-(1-(5-(pyridin-2-yloxy)pyridin-2-yl)propoxy)benzamide] | 100 to 500
7 | CC(Oc1ccc(C(=O)NS(=O)(=O)c2ccc(CN)cc2)cc1C(F)(F)F)c1cccc(Oc2cncnc2)c1 (stereo not drawn) [N-((4-(aminomethyl)phenyl)sulfonyl)-4-(1-(3-(pyrimidin-5-yloxy)phenyl)ethoxy)-3-(trifluoromethyl)benzamide] | 100 to 500
8 | CC[C@@H](Oc1ccc(C(=O)NS(=O)(=O)N2CCC(OC3CCN(C)CC3)CC2)c(F)c1F)c1ccc(OCCOC)cn1 [(R)-2,3-difluoro-4-(1-(5-(2-methoxyethoxy)pyridin-2-yl)propoxy)-N-((4-((1-methylpiperidin-4-yl)oxy)piperidin-1-yl)sulfonyl)benzamide] | > 500
9 | CC(Oc1ccc(C(=O)NS(=O)(=O)c2ccc(CN)cc2)cc1C(F)(F)F)c1cccc(Oc2cccnc2)c1 (stereo not drawn) [N-((4-(aminomethyl)phenyl)sulfonyl)-4-(1-(3-(pyridin-3-yloxy)phenyl)ethoxy)-3-(trifluoromethyl)benzamide] | < 100
10 | CC[C@@H](Oc1ccc(C(=O)NS(=O)(=O)N2CCN(CC)CC2)c(F)c1F)c1ccc(OC2CC(OC)C2)cn1 (stereo partly drawn) [N-((4-ethylpiperazin-1-yl)sulfonyl)-2,3-difluoro-4-((R)-1-(5-((1R,3R)-3-methoxycyclobutoxy)pyridin-2-yl)propoxy)benzamide] | 100 to 500
11 | CC[C@@H](Oc1ccc(C(=O)NS(=O)(=O)N2CCC(OCCN3CCCC3)CC2)c(F)c1F)c1ccc(OCC2CC2)cn1 [(R)-4-(1-(5-(cyclopropylmethoxy)pyridin-2-yl)propoxy)-2,3-difluoro-N-((4-(2-(pyrrolidin-1-yl)ethoxy)piperidin-1-yl)sulfonyl)benzamide] | 100 to 500
12 | Cc1cc(C(=O)NS(=O)(=O)c2ccc(CN)cc2)ccc1OC(C)c1cccc(Oc2ccccc2)c1 (racemic) [rac-(R)-N-((4-(aminomethyl)phenyl)sulfonyl)-3-methyl-4-(1-(3-phenoxyphenyl)ethoxy)benzamide] | < 100
13 | CC[C@@H](Oc1ccc(C(=O)NS(=O)(=O)N2CC3CC(C2)N3C)c(F)c1F)c1ccc(Oc2ccccn2)cn1 [2,3-difluoro-N-((6-methyl-3,6-diazabicyclo[3.1.1]heptan-3-yl)sulfonyl)-4-((R)-1-(5-(pyridin-2-yloxy)pyridin-2-yl)propoxy)benzamide] | < 100
14 | CC[C@@H](Oc1ccc(C(=O)NS(=O)(=O)c2ccc(OCCNC)cc2)c(F)c1F)c1ccc(OCC2CC2)cn1 [(R)-4-(1-(5-(cyclopropylmethoxy)pyridin-2-yl)propoxy)-2,3-difluoro-N-((4-(2-(methylamino)ethoxy)phenyl)sulfonyl)benzamide] | < 100
15 | CC[C@@H](Oc1ccc(C(=O)NS(=O)(=O)c2ccc(O[C@@H]3CCCN(C)C3)cc2)c(F)c1F)c1ccc(Oc2ccccn2)cn1 [2,3-difluoro-N-((4-(((R)-1-methylpiperidin-3-yl)oxy)phenyl)sulfonyl)-4-((R)-1-(5-(pyridin-2-yloxy)pyridin-2-yl)propoxy)benzamide] | < 100
16 | CC[C@@H](Oc1ccc(C(=O)NS(=O)(=O)N2CCC(OC3CN(C)C3)CC2)c(F)c1F)c1ccc(Oc2ccccn2)cn1 [(R)-2,3-difluoro-N-((4-((1-methylazetidin-3-yl)oxy)piperidin-1-yl)sulfonyl)-4-(1-(5-(pyridin-2-yloxy)pyridin-2-yl)propoxy)benzamide] | < 100
17 | CC[C@@H](Oc1ccc(C(=O)NS(=O)(=O)N2CC3(CN(C)C3)C2)c(F)c1F)c1ccc(OCC2CC2)cn1 [(R)-4-(1-(5-(cyclopropylmethoxy)pyridin-2-yl)propoxy)-2,3-difluoro-N-((6-methyl-2,6-diazaspiro[3.3]heptan-2-yl)sulfonyl)benzamide] | 100 to 500
18 | CC(Oc1ccc(C(=O)NS(=O)(=O)CCN)c(Cl)c1Cl)c1cccc(Oc2ccccc2)c1 (racemic) [rac-(R)-N-((2-aminoethyl)sulfonyl)-2,3-dichloro-4-(1-(3-phenoxyphenyl)ethoxy)benzamide] | > 500
19 | CC(Oc1ccc(C(=O)NS(=O)(=O)CCN)cc1C(F)(F)F)c1cccc(Oc2ccccc2)c1 (racemic) [rac-(R)-N-((2-aminoethyl)sulfonyl)-4-(1-(3-phenoxyphenyl)ethoxy)-3-(trifluoromethyl)benzamide] | 100 to 500
20 | CCOc1ccc(C(C)Oc2ccc(C(=O)NS(=O)(=O)C3CCNCC3)c(F)c2F)nc1 (stereo not drawn) [4-(1-(5-ethoxypyridin-2-yl)ethoxy)-2,3-difluoro-N-(piperidin-4-ylsulfonyl)benzamide] | > 500
21 | CCOc1ccc(C(C)Oc2ccc(C(=O)NS(=O)(=O)N3CCN(C)CC3)c(F)c2F)nc1 (stereo not drawn) [4-(1-(5-ethoxypyridin-2-yl)ethoxy)-2,3-difluoro-N-((4-methylpiperazin-1-yl)sulfonyl)benzamide] | > 500
22 | CC[C@@H](Oc1ccc(C(=O)NS(=O)(=O)N2CC(OC3CCN(C)CC3)C2)c(F)c1F)c1ccc(Oc2ccccn2)cn1 [(R)-2,3-difluoro-N-((3-((1-methylpiperidin-4-yl)oxy)azetidin-1-yl)sulfonyl)-4-(1-(5-(pyridin-2-yloxy)pyridin-2-yl)propoxy)benzamide] | 100 to 500
23 | CC(Oc1ccc(C(=O)NS(=O)(=O)c2ccc(CN)cc2)cc1C(F)(F)F)c1cccc(Oc2ccccn2)c1 (stereo not drawn) [N-((4-(aminomethyl)phenyl)sulfonyl)-4-(1-(3-(pyridin-2-yloxy)phenyl)ethoxy)-3-(trifluoromethyl)benzamide] | < 100
24 | CC[C@@H](Oc1ccc(C(=O)NS(=O)(=O)N2CCN(CC)CC2)cc1C(F)(F)F)c1ccc(OC2CC(OC)C2)cn1 (stereo partly drawn) [N-((4-ethylpiperazin-1-yl)sulfonyl)-4-((R)-1-(5-((1R,3R)-3-methoxycyclobutoxy)pyridin-2-yl)propoxy)-3-(trifluoromethyl)benzamide] | 100 to 500
25 | CC(Oc1ccc(C(=O)NS(=O)(=O)c2ccc(CN)cc2)c(F)c1F)c1cccc(Oc2cccnc2)c1 (stereo not drawn) [N-((4-(aminomethyl)phenyl)sulfonyl)-2,3-difluoro-4-(1-(3-(pyridin-3-yloxy)phenyl)ethoxy)benzamide] | < 100
26 | CCCCCOc1cccc(C(C)Oc2ccc(C(=O)NS(=O)(=O)c3ccc(CN)cc3)cc2C(F)(F)F)c1 (stereo not drawn) [N-((4-(aminomethyl)phenyl)sulfonyl)-4-(1-(3-(pentyloxy)phenyl)ethoxy)-3-(trifluoromethyl)benzamide] | 100 to 500
27 | CC(Oc1ccc(C(=O)NS(=O)(=O)c2ccc(CN)cc2)cc1C(F)(F)F)c1cccc(Oc2ccsc2)c1 (stereo not drawn) [N-((4-(aminomethyl)phenyl)sulfonyl)-4-(1-(3-(thiophen-3-yloxy)phenyl)ethoxy)-3-(trifluoromethyl)benzamide] | < 100
28 | CC[C@@H](Oc1ccc(C(=O)NS(=O)(=O)N2CC(OC3CCN(C)CC3)C2)c(F)c1F)c1ccc(OCC2CC2)cn1 [(R)-4-(1-(5-(cyclopropylmethoxy)pyridin-2-yl)propoxy)-2,3-difluoro-N-((3-((1-methylpiperidin-4-yl)oxy)azetidin-1-yl)sulfonyl)benzamide] | 100 to 500
29 | CC(Oc1ccc(C(=O)NS(=O)(=O)CCN)c(Cl)c1Cl)c1cccc(Oc2ccccc2)c1 (stereo not drawn) [N-((2-aminoethyl)sulfonyl)-2,3-dichloro-4-(1-(3-phenoxyphenyl)ethoxy)benzamide] | 100 to 500
30 | CC[C@@H](Oc1ccc(C(=O)NS(=O)(=O)N2CC3=C(CN(C)C3)C2)c(F)c1F)c1ccc(Oc2ccccn2)cn1 [(R)-2,3-difluoro-N-((5-methyl-3,4,5,6-tetrahydropyrrolo[3,4-c]pyrrol-2(1H)-yl)sulfonyl)-4-(1-(5-(pyridin-2-yloxy)pyridin-2-yl)propoxy)benzamide] | 100 to 500
